{"source": "paper PMC7671190", "about": "(Journal of medicinal chemistry, 2020)", "key": {"[1]": {"tested_on": "HIV/EBOV-GP pseudotype virus", "experiment": "organism not typed", "format": "cell-based, Ebola virus (EBOV)"}, "CYP3A4": {"target": "CYP3A4 (Homo sapiens, UniProt P08684)", "sequence (P08684 whole entry)": "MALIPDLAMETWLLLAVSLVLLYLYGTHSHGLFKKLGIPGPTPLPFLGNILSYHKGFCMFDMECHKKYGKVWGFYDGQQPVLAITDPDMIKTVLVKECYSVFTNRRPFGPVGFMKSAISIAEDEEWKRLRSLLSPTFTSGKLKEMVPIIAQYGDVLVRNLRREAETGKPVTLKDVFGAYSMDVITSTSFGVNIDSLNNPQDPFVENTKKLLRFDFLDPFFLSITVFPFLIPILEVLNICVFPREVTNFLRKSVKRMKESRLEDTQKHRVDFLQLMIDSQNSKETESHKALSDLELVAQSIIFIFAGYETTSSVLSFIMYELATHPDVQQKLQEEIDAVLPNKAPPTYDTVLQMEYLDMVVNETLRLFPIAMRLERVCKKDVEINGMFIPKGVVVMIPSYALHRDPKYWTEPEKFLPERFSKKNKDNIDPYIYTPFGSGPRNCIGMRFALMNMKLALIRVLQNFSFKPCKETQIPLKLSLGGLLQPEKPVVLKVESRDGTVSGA"}, "CYP2C9": {"target": "CYP2C9 (Homo sapiens, UniProt P11712)", "sequence (P11712 whole entry)": "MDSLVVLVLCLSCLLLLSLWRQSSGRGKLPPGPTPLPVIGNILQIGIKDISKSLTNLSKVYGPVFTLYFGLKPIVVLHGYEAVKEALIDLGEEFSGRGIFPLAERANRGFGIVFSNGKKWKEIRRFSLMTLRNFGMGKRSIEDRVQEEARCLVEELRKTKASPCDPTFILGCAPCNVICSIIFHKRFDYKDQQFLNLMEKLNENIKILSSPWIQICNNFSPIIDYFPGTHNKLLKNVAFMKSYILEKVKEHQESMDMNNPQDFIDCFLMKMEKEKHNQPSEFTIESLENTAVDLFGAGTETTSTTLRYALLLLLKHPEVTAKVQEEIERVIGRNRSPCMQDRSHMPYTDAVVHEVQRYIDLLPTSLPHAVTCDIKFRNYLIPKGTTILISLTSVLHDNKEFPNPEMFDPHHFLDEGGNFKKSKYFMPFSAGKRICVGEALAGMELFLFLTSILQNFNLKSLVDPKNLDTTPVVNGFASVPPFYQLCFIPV"}, "[2]": {"tested_on": "Wild type Ebola virus (1976 Mayinga variant)", "format": "cell-based, Ebola virus (EBOV)"}, "[3]": {"tested_on": "wild type MARV (Lake Victoria, 2005 Angola)", "experiment": "organism not typed", "format": "cell-based, Marburg virus (MARV)", "details": "Vero, read-out: MARV EC50, Vero cells"}, "[4]": {"details": "A549, read-out: EC50, Ebola pseudovirus (in nM)"}}, "note": "Where two headings read alike, the source gives them in different places.", "data": [{"smiles": "O=C(Nc1ccc(C23CC4CC(CC(C4)C2)C3)cc1)c1ccc(CN2CCCCC2)cc1", "note": "[Compound 32, N-(4-((1R,3R,5S)-adamantan-1-yl)phenyl)-4-(piperidin-1-ylmethyl)benzamide]", "values": [{"measurement": "EC50", "setting": "[1]; [4]", "result": "< 100", "unit": "nM"}, {"measurement": "CYP450 inhibition CYP3A4 IC50", "setting": "CYP3A4", "result": "did not inhibit"}, {"measurement": "CYP450 inhibition CYP2C9 IC50", "setting": "CYP2C9", "result": "did not inhibit"}]}, {"smiles": "O=C(Nc1ccc(N2CCC(F)(F)CC2)cc1)c1ccc(CN2CCCCC2)cc1", "note": "[Compound 34, N-(4-(4,4-Difluoropiperidin-1-yl)phenyl)-4-(piperidin-1-ylmethyl)benzamide]", "values": [{"measurement": "EC50", "setting": "[1]; A549, read-out: Ebola pseudovirus A549 cells EC50", "result": "< 1000", "unit": "nM"}]}, {"smiles": "O=C(NCCC1CCCCC1)c1ccc(CN2CCCCC2)cc1", "note": "[Compound 28, N-(2-Cyclohexylethyl)-4-(piperidin-1-ylmethyl)benzamide]", "values": [{"measurement": "Drop in potency on replacing the aniline aromatic ring with a two-carbon linker", "setting": "[1]", "result": 2.3, "unit": "fold"}]}, {"smiles": "O=C(Nc1ccc(C23CC4CC(CC(C4)C2)C3)cc1)c1ccc(CN2CCOCC2)cc1", "note": "[Compound 33, N-(4-((1R,3R,5S)-Adamantan-1-yl)phenyl)-4-(morpholinomethyl)benzamide]", "values": [{"measurement": "EC50", "setting": "[1]; [4]", "result": "< 100", "unit": "nM"}]}, {"smiles": "COC(=O)c1ccc(NC(=O)c2ccc(CN3CCCCC3)cc2)cc1", "note": "[Compound 5, Methyl 4-(4-(piperidin-1-ylmethyl)benzamido)benzoate]", "values": [{"measurement": "EBOV (HeLa) EC50", "setting": "[2]", "result": "inactive"}, {"measurement": "EC50", "setting": "[3]", "result": "< 10", "unit": "µM"}]}, {"smiles": "COC(=O)c1ccc(NC(=O)c2ccc(CN3CCN(C)CC3)cc2)cc1", "note": "[Compound 7, Methyl 4-(4-((4-methylpiperazin-1-yl)methyl)benzamido)benzoate]", "values": [{"measurement": "inhibition at 12.5 µM", "setting": "[1]; A549, read-out: Ebola pseudovirus A549 cells % inhibition", "result": 29, "unit": "%"}]}]}
